Test results reported in ChEMBL document CHEMBL2021794, “Synthesis, σ₁, σ₂-receptors binding affinity and antiproliferative action of new C1-substituted adamantanes” (Bioorg Med Chem, 2012).

What was measured:
BXPC-3 = test: Growth inhibition of human BxPC3 cells after 48 hrs by SRB assay; type: functional; details: BXPC-3, 48 h
NCI-H460 = test: Growth inhibition of human NCI-H460 cells after 48 hrs by SRB assay; type: functional; details: NCI-H460, 48 h
[1] = target: Sigma non-opioid intracellular receptor 1 (Homo sapiens, UniProt Q99720); test: Displacement of [3H](+)pentazocine from sigma-1 receptor expressed in human Jurkat cell membranes after 2 hrs by liquid scintillation spectroscopy
Sigma non-opioid intracellular receptor 1, sequence (Q99720 whole entry): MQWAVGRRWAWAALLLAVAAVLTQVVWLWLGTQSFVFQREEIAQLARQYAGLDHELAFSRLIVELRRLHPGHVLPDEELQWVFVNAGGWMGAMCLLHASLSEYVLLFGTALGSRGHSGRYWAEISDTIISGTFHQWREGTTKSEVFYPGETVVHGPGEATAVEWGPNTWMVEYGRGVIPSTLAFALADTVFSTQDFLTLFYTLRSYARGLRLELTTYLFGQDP

[2] = Displacement of [3H](+)1-DTG from sigma-2 receptor expressed in rat cerebral cortex membranes after 2 hrs by liquid scintillation spectroscopy; type: cell membranes, Membrane
[3] = Displacement of [3H]BTX-B from Na+ channel site 2 after 60 mins by liquid scintillation spectroscopy
SF-268 = test: Growth inhibition of human SF268 cells after 48 hrs by SRB assay; type: functional; details: SF-268, 48 h; for CC50: read-out: LC50 (the source's name)
HCT-116 = test: Growth inhibition of human HCT116 cells after 48 hrs by SRB assay; type: functional; details: HCT-116, 48 h; for CC50: read-out: LC50 (the source's name)
OVCAR-5 = test: Growth inhibition of human OVCAR5 cells after 48 hrs by SRB assay; type: functional; details: OVCAR-5, 48 h; for CC50: read-out: LC50 (the source's name)
MCF7 = test: Growth inhibition of human MCF7 cells after 48 hrs by SRB assay; type: functional; details: MCF7, 48 h; for CC50: read-out: LC50 (the source's name)
[4] = (§1) Growth inhibition of NHDF cells after 48 hrs by SRB assay; type: cell-based; details: human, NHDF cells
NHDF = test: as §1; type: cell-based; details: human, nhdf, 48 h
IGROV-1 = test: Growth inhibition of human IGROV1 cells after 48 hrs by SRB assay; type: functional; details: IGROV-1, 48 h
SK-HEP1 = test: Growth inhibition of human SKHEP1 cells after 48 hrs by SRB assay; type: functional; details: SK-HEP1, 48 h
LOX IMVI = test: Growth inhibition of human LOXIMVI cells after 48 hrs by SRB assay; type: functional
[5] = Growth inhibition of human MSC cells after 48 hrs by SRB assay; type: cell-based
HL-60(TB) = test: Growth inhibition of human HL-60(TB) cells after 48 hrs by SRB assay; type: functional; details: HL-60, 48 h
HUVEC = test: (§2) Growth inhibition of HUVEC cells after 48 hrs by SRB assay; type: cell-based; details: human, huvec, 48 h
[6] = as §2; type: cell-based; details: human, HUVEC cells
DMS-114 = test: Growth inhibition of human DMS114 cells after 48 hrs by SRB assay; type: functional; details: DMS-114, 48 h
HCT-15 = test: Growth inhibition of human HCT15 cells after 48 hrs by SRB assay; type: functional; details: HCT-15, 48 h
MIA PaCa-2 [7] = test: Growth inhibition of human MIAPaCa2 cells after 48 hrs by SRB assay; type: functional; details: MIA PaCa-2, 48 h; for CC50: read-out: LC50 (the source's name)
MIA PaCa-2 [8] = test: Antitumor activity against human MIAPaCa2 cells xenografted in SCID mouse assessed as tumor weight at 70 mg/kg, ip twice a week (reference value: 1225 +/- 308 mg); type: functional; details: route intraperitoneal
MIA PaCa-2 [9] = test: Antitumor activity against human MIAPaCa2 cells xenografted in SCID mouse assessed as reduction in tumor volume at 70 mg/kg, ip twice a week; details: MIA PaCa-2, ip, read-out: INH
[10] = Selectivity ratio of IC50 for human sigma-1 receptor to IC50 for rat sigma-2 receptor
[11] = read-out: LC50 (the source's name)

Q: With `c1ccc(C(c2ccc(N3CCOCC3)cc2)C23CC4CC(CC(C4)C2)C3)cc1` (centres undefined) as the compound, how does the LC50 (BXPC-3) read?
A: 100 µM

Q: What about the TGI (BXPC-3) of the same compound?
A: 100 µM

Q: What about the LC50 (concentration killing 50% of cells) (NCI-H460) of the same compound?
A: 100 µM

Q: And the TGI (NCI-H460)?
A: 100 µM

Q: And the IC50 [1]?
A: > 0.1 µM

Q: What about the IC50 [2] of the same compound?
A: > 1 µM

Q: What about the IC50 [3] of the same compound?
A: > 10 µM

Q: What about the CC50 (SF-268) of the same compound?
A: 100 µM

Q: What about the TGI (HCT-116) of the same compound?
A: 100 µM

Q: What about the CC50 (HCT-116) of the same compound?
A: 100 µM

Q: What about the TGI (OVCAR-5) of the same compound?
A: 100 µM

Q: And the CC50 (OVCAR-5)?
A: 100 µM

Q: And the TGI (MCF7)?
A: 100 µM

Q: What about the CC50 (MCF7) of the same compound?
A: 100 µM

Q: What does the source list for `c1ccc(C(c2ccc(N3CCNCC3)cc2)C23CC4CC(CC(C4)C2)C3)cc1` (centres undefined)?
A: GI50 at 48 h [4]: 2.97 µM; LC50 (NHDF): 9.49 µM; TGI (NHDF): 6.23 µM; GI50 (BXPC-3): 3.61 µM; LC50 (BXPC-3): 9.05 µM; TGI (BXPC-3): 6.33 µM; GI50 (NCI-H460): 3.74 µM; LC50 (concentration killing 50% of cells) (NCI-H460): 9.7 µM; TGI (NCI-H460): 6.72 µM; IC50 [1]: 0.0124 µM; GI50 (IGROV-1): 3.32 µM; TGI (IGROV-1): 6.1 µM; CC50 (IGROV-1; [11]): 8.89 µM; GI50 (SK-HEP1): 3.91 µM; TGI (SK-HEP1): 6.48 µM; CC50 (SK-HEP1; [11]): 9.04 µM; GI50 (LOX IMVI): 2.79 µM; LC50 (concentration killing 50% of cells) (LOX IMVI): 8.11 µM; TGI (LOX IMVI): 5.45 µM; GI50 at 48 h ([5]; MSC cells): 4.87 µM; LC50 ([5]; msc, 48 h): 9.33 µM; TGI ([5]; msc, 48 h): 7.1 µM; GI50 (HL-60(TB)): 5.97 µM; LC50 (HL-60(TB)): 100 µM; TGI (HL-60(TB)): 9.92 µM; IC50 [2]: > 1 µM; IC50 [3]: 1.2 µM; LC50 (HUVEC): 100 µM; TGI (HUVEC): 7.62 µM; GI50 at 48 h [6]: 4.8 µM; GI50 (SF-268): 3.45 µM; TGI (SF-268): 6.11 µM; CC50 (SF-268): 8.76 µM; GI50 (DMS-114): 3.97 µM; TGI (DMS-114): 6.51 µM; CC50 (DMS-114; [11]): 9.05 µM; GI50 (HCT-116): 3.67 µM; TGI (HCT-116): 6.54 µM; CC50 (HCT-116): 9.41 µM; GI50 (OVCAR-5): 4.27 µM; TGI (OVCAR-5): 7.33 µM; CC50 (OVCAR-5): 10.4 µM; GI50 (MCF7): 2.49 µM; TGI (MCF7): 5.59 µM; CC50 (MCF7): 8.68 µM; GI50 (HCT-15): 3.4 µM; LC50 (HCT-15): 8.9 µM; TGI (HCT-15): 6.15 µM

Q: Which results are given for `Nc1ccn([C@@H]2O[C@H](CO)[C@@H](O)C2(F)F)c(=O)n1` [GEMCITABINE]?
A: GI50 (BXPC-3): 3.64 µM; TGI (BXPC-3): 9.05 µM; GI50 (MIA PaCa-2 [7]): 35.8 µM; TGI (MIA PaCa-2 [7]): 100 µM; CC50 (MIA PaCa-2 [7]): 100 µM; Activity (MIA PaCa-2 [8]): 537 mg; inhibition in vivo at 70 mg/kg (MIA PaCa-2 [9]): 56.2%

Q: With `c1ccc(C(c2ccc(N3CCN(C4CCCCC4)CC3)cc2)C23CC4CC(CC(C4)C2)C3)cc1` (centres undefined) as the compound, how does the GI50 (BXPC-3) read?
A: 8.58 µM

Q: And the LC50 (BXPC-3)?
A: 100 µM

Q: And the TGI (BXPC-3)?
A: 76.8 µM

Q: What about the Ratio IC50 [10] of the same compound?
A: 360

Q: What about the GI50 (NCI-H460) of the same compound?
A: 47.3 µM

Q: What about the LC50 (concentration killing 50% of cells) (NCI-H460) of the same compound?
A: 100 µM

Q: And the TGI (NCI-H460)?
A: 100 µM

Q: And the IC50 [1]?
A: 0.00027 µM

Q: What about the GI50 (MIA PaCa-2 [7]) of the same compound?
A: 20.2 µM

Q: And the TGI (MIA PaCa-2 [7])?
A: 66.1 µM

Q: And the CC50 (MIA PaCa-2 [7])?
A: 100 µM

Q: And the IC50 [2]?
A: 0.097 µM

Q: And the IC50 [3]?
A: 0.7 µM

Q: And the GI50 (SF-268)?
A: 53.1 µM

Q: And the TGI (SF-268)?
A: 99.8 µM

Q: What about the CC50 (SF-268) of the same compound?
A: 100 µM

Q: What about the GI50 (HCT-116) of the same compound?
A: 22.2 µM

Q: What about the TGI (HCT-116) of the same compound?
A: 100 µM

Q: What about the CC50 (HCT-116) of the same compound?
A: 100 µM

Q: And the GI50 (OVCAR-5)?
A: 55.4 µM

Q: What about the TGI (OVCAR-5) of the same compound?
A: 98.2 µM

Q: And the CC50 (OVCAR-5)?
A: 100 µM

Q: What about the GI50 (MCF7) of the same compound?
A: 8.7 µM

Q: What about the TGI (MCF7) of the same compound?
A: 55 µM

Q: And the CC50 (MCF7)?
A: 100 µM
